Assay [1] has as its target T1, kisspeptin receptor (Homo sapiens, UniProt Q969F8). As to the kind of experiment: BRET assay, β-arrestin2 recruitment. The assay is classed as cell-based. Set-up: expressed in transfected cells; host or cells: HeLa cells, transient transfection with PEI. Conditions: for EC50 / Emax: HeLa cells, β-arrestin2 recruitment; for Emax: KP10 = 100%. An excerpt: (§1) The Bioluminescence Resonance Energy Transfer (BRET) assay was developed as described before. Briefly, HeLa cells were transiently transfected with these plasmids encoding for the GPCR, Gα subunit, the G protein effectors tagged with the BRET donor (RlucII), and the plasma membrane anchor (the CAAX motif from KRas, which includes a prenylation and a polybasic domain) fused to the BRET acceptor rGFP using Polietilendiimine (PEI) as described in Avet et al.. Fourty-eight hours post-transfection, cells were incubated with the coelenterazine substrate for Renilla luciferase Prolume Purple, stimulated with kisspeptin receptor agonists for 10 min and BRET signals were measured using a dual-filter luminometer (SPARK, Tecan Life Sciences, Männedorf, Switzerland). BRET ratios were calculated by dividing the acceptor emission by the donor emission, providing a quantitative measure for […]. Data were analyzed using Prism 8.0 (GraphPad) to determine interaction dynamics under various experimental conditions.
On the technique in general: BRET reads energy transfer from a luciferase to a nearby fluorophore.

Assay [2] concerns the target T1, kisspeptin receptor. As to the kind of experiment: BRET assay, Gz pathway. The assay is classed as cell-based. Also noted: expressed in transfected cells; host or cells: HeLa cells, transient transfection with PEI. Conditions: for EC50 / Δ(logτ/KA) bias factor, Gαz pathway / Emax: HeLa cells; for EC50 / Emax: Gz pathway; for Δ(logτ/KA) bias factor, Gαz pathway: operational model, KP10 as reference; for Emax: KP10 = 100%.
Excerpt: as §1, with “conditions. The bias factor for the kisspeptin analogs was calculated using the operational model of agonism as described by Kenakin [31]. Emax and EC50 values were determined for each signaling pathway (e.g., G protein activation, β-arrestin recruitment). The data were then fitted to the operational model to estimate transduction coefficients (τ). The bias factor (ΔLog(τ/KA)) was calculated by comparing the τ/KA values for each pathway relative to a reference pathway. This method quantifies signaling bias by evaluating relative efficacy and potency across pathways. Statistical significance of the observed bias was assessed to ensure the differences were not due to random variation. All calculations and analyses were performed using GraphPad Prism software (GraphPad, San Diego, CA, USA).” for “conditions.”

In a further assay the test system is HEK293T cells. As to the kind of experiment: Cytotoxicity MTT assay, HEK293T. The class given is cell-based, human. The settings on record: 48 h. On the procedure: (§2) Human cervical adenocarcinoma (HeLa) cells (cat# CRM-CCL-2) were obtained from the American Type Culture Collection (ATCC, Manassas, VA, USA). Human breast adenocarcinoma (MCF7) cells, Human prostate adenocarcinoma (PC3) cells, Human gastric adenocarcinoma (AGS) cells and Human Embryonic Kidney cells (HEK293T) were kindly provided by the Universidad Industrial de Santander. HeLa, MCF7, and HEK293T cells were cultured in DMEM medium supplemented with 10% FBS (fetal bovine serum), 1% penicillin/streptomycin. PC3 and AGS cells were cultured in RPMI medium supplemented with 10% FBS, 1% penicillin/streptomycin. All cells were maintained at 37 °C and 5% CO2.
(§3) 15,000 cells per well were plated in 96-well plates (Greiner, Fisher Scientific, Waltham, MA, USA) using a fully complemented medium, and incubated at 37 °C. Following a 24 h period, cells underwent serum starvation before being treated with KP10 and its analogs at concentrations of 10, 100, 250, and 500 nM for 48 h. Subsequently, each well received 100 µL of MTT solution (0.5 mg/mL), and the plates were incubated at 37 °C for 3 h. After adding the MTT solvent and further incubation for 15 min, the resultant absorbance was measured at 590 nm using a BioTech RT-2100C microplate reader. Data analysis was performed using Prism 8.0 software (GraphPad).
On the technique in general: Tetrazolium dyes change colour on reduction, which living cells bring about.

Assay [3] concerns the target T1, kisspeptin receptor. The assay is described as follows: BRET assay, G14 pathway. Conditions: for EC50 / Emax: HeLa cells, G14 pathway; for EC50: read-out: pEC50 G14 (converted); for Emax: KP10 = 100%. The class given is cell-based. Set-up: expressed in transfected cells; host or cells: HeLa cells, transient transfection with PEI.
Excerpt: as §1

Assay [4] concerns the target T1, kisspeptin receptor. As to the kind of experiment: BRET assay, G15 pathway. The assay is classed as cell-based. Also noted: expressed in transfected cells; host or cells: HeLa cells, transient transfection with PEI. Conditions: for EC50 / Emax: HeLa cells, G15 pathway; for EC50: read-out: pEC50 G15 (converted); for Emax: KP10 = 100%.
Excerpt: as §1

For assay [5], the target named is T1, kisspeptin receptor. The assay is described as follows: BRET assay, Gq pathway. The class given is cell-based. Also noted: expressed in transfected cells; host or cells: HeLa cells, transient transfection with PEI. The settings on record: for EC50 / Emax: HeLa cells, Gq pathway; for Emax: KP10 = 100%.
Excerpt: as §1

Assay [6] deals with T1, kisspeptin receptor. The assay is described as follows: BRET assay, G11 pathway. The assay is classed as cell-based. Also noted: expressed in transfected cells; host or cells: HeLa cells, transient transfection with PEI. The settings on record: for EC50 / Emax: HeLa cells, G11 pathway; for EC50: read-out: pEC50 G11 (converted); for Emax: KP10 = 100%.
Excerpt: as §1

Assay [7] deals with PC3 cells. As to the kind of experiment: Cytotoxicity MTT assay, PC3. Conditions: 48 h. The assay is classed as cell-based, human. On the procedure: as §2, §3
The subject of the next assay is AGS cells. The assay is described as follows: In vitro wound healing assay, AGS. The class given is cell-based, human. Conditions: difference to control less marked. On the procedure:
(§4) Cells (3 × 10^5 cells/well) were seeded in 24-well plates for 24 h. Then, a sterile pipette tip of 20–200 μL was held vertically to create a cross-shaped scratch in each well. The detached cells were carefully removed by washing with 500 μL PBS and shaking at 500 rpm for 5 min. Then, 500 μL of medium containing the peptides to be tested was added to each well and incubated for 72 h. Prior taking each image, the plate was washed with 500 μL of PBS and gently shaken for 30 s. Then, 500 μL of medium containing the corresponding peptides was added to each well again and images were taken at 24 h intervals using a Primovert microscope at 4× magnification and 1/3700 s exposure time. Wound opening areas were obtained using Prism 8.0 software (GraphPad).

Assay [8] has as its system PC3 cells. The assay is described as follows: In vitro wound healing assay, PC3. The assay is classed as cell-based, human. Conditions: PC3, difference to control less marked. On the procedure:
as §4

Assay [9] concerns the target T1, kisspeptin receptor. The assay is described as follows: BRET assay, β-arrestin1 recruitment. The settings on record: for Emax / EC50: HeLa cells, β-arrestin1 recruitment; for Emax: KP10 = 100%; for EC50: mean of 4 experiments. The class given is cell-based. Set-up: expressed in transfected cells; host or cells: HeLa cells, transient transfection with PEI.
Excerpt: as §1

Assay [10] concerns HeLa cells. The assay is described as follows: In vitro wound healing assay, HeLa. The class given is cell-based, human. The settings on record: particularly at 48 and 72 h. On the procedure: as §4
In assay [11] the test system is MCF7 cells. As to the kind of experiment: In vitro wound healing assay, MCF7. The settings on record: MCF7, particularly at 48 and 72 h. The assay is classed as cell-based, human. On the procedure:
as §4

Assay [12] concerns MCF7 cells. As to the kind of experiment: Cytotoxicity MTT assay, MCF7. The class given is cell-based, human. Conditions: 48 h. On the procedure: as §2, §3
The test system of assay [13] is HeLa cells. As to the kind of experiment: Cytotoxicity MTT assay, HeLa. The settings on record: 48 h. The class given is cell-based, human. On the procedure:
as §2, §3

Setting [14] is: read-out: pEC50 β-arrestin2 (converted).
The mark [15] stands for this setting: mean of 4 experiments, read-out: EC50(M) Gz.
Setting [16] is: mean of 4 experiments, read-out: EC50(M) β-arrestin2.

By Emax is commonly meant the maximal effect, on the per cent scale that the assay sets.

Residues, ends and D or L forms follow the SMILES beside them.

T1 sequence (Q969F8 whole entry, the tested form may be a part): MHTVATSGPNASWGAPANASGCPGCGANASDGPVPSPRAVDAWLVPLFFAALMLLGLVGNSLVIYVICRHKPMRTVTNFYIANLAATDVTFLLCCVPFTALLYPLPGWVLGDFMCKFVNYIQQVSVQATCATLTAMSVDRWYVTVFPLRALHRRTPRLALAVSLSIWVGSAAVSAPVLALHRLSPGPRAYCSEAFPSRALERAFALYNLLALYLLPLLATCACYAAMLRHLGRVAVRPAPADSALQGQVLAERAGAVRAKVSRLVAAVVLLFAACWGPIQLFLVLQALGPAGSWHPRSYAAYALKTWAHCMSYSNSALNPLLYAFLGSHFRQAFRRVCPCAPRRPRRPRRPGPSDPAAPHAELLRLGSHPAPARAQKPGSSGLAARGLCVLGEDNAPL

Regarding `CC(C)C[C@H](NC(=O)CNC(=O)[C@H](Cc1ccccc1)NC(=O)[C@H](CO)NC(=O)[C@H](CC(N)=O)NC(=O)[C@H](Cc1c[nH]c2ccccc12)NC(=O)[C@H](CC(N)=O)NC(=O)[C@@H](N)Cc1ccc(O)cc1)C(=O)N[C@@H](CCCN=C(N)N)C(=O)N[C@@H](Cc1ccccc1)C(N)=O` [KP-10, kisspeptin-10, reference compound], the EC50 at kisspeptin receptor [1] (setting [14]) is 3.72e-07 M; on kisspeptin receptor [2] (setting [15]), 1.63e-07 M; on kisspeptin receptor [2] (read-out: pEC50 Gz (converted)) it was 1.35e-07 M; on kisspeptin receptor [3], 33.1 nM; on kisspeptin receptor [4], 26.9 nM; on kisspeptin receptor [5], 13.5 nM. The EC50 on kisspeptin receptor [6] is 38 nM. Besides, the “Δ(logτ/KA) bias factor, Gαz pathway” value at kisspeptin receptor [2] was found to be 0. The “pIC50 HEK293T” value in the assay on HEK293T cells was found to be 2.489. The “pIC50 PC3” value in the assay on PC3 cells [7] is on record as 2.678.

In the case of `CC(C)C[C@H](NC(=O)CNC(=O)[C@H](Cc1ccccc1)NC(=O)[C@H](CO)NC(=O)[C@H](C)NC(=O)[C@H](Cc1c[nH]c2ccccc12)NC(=O)[C@H](CC(N)=O)NC(=O)[C@@H](N)Cc1ccc(O)cc1)C(=O)N[C@@H](CCCNC(=N)N)C(=O)N[C@@H](Cc1ccccc1)C(N)=O` [Ala^4-KP10] (H-YNWASFGLRF-NH2; N-terminus assumed), the Emax was found to be 79% on kisspeptin receptor [1]; 84.7% on kisspeptin receptor [2]; 69.1% on kisspeptin receptor [9]; 97.7% at kisspeptin receptor [3]; 101% on kisspeptin receptor [4]; 104% at kisspeptin receptor [5]. The molecule also displayed a maximal response (Emax) on kisspeptin receptor [6] of 106%. The EC50 on kisspeptin receptor [1] (setting [16]) is 2.58e-06 M; on kisspeptin receptor [1] (setting [14]) it was 2.51e-06 M; on kisspeptin receptor [2] (setting [15]), 1.1e-06 M; at kisspeptin receptor [2] (read-out: pEC50 Gz (converted)), 9.12e-07 M; at kisspeptin receptor [9], 13000 nM; on kisspeptin receptor [3], 355 nM. Besides, the values for the EC50 at kisspeptin receptor [4], at kisspeptin receptor [5] and at kisspeptin receptor [6] were 339 nM, 214 nM and 447 nM, respectively. Moreover, at kisspeptin receptor [2], the “Δ(logτ/KA) bias factor, Gαz pathway” value is given as −1.66. Moreover, the “migration inhibition (wound closure)” value is “more inhibitory treatment” in the assay on AGS cells, “more inhibitory treatment” with PC3 cells [8], “most pronounced effects” in the assay on HeLa cells [10] and “most pronounced effects” in the assay with MCF7 cells [11]. Also, the “pIC50 PC3” value in the assay on PC3 cells [7] is 2.541.

`CC(C)C[C@H](NC(=O)CNC(=O)[C@H](Cc1ccccc1)NC(=O)[C@H](CO)NC(=O)[C@H](CC(N)=O)NC(=O)[C@H](C)NC(=O)[C@H](CC(N)=O)NC(=O)[C@@H](N)Cc1ccc(O)cc1)C(=O)N[C@@H](CCCNC(=N)N)C(=O)N[C@@H](Cc1ccccc1)C(N)=O` [Ala^3-KP10] (H-YNANSFGLRF-NH2; N-terminus assumed): the Emax on kisspeptin receptor [1] is 63.9%; on kisspeptin receptor [2] it was 94%; on kisspeptin receptor [9], 69%; on kisspeptin receptor [3], 100%; at kisspeptin receptor [4] it was 99.5%; at kisspeptin receptor [5], 107%. Further, the maximal response (Emax) at kisspeptin receptor [6] worked out at 102%. The EC50 on kisspeptin receptor [1] (setting [16]) is 1.43e-06 M; at kisspeptin receptor [1] (setting [14]), 1e-06 M; at kisspeptin receptor [2] (setting [15]) it was 6.46e-07 M; on kisspeptin receptor [2] (read-out: pEC50 Gz (converted)), 5.75e-07 M; on kisspeptin receptor [9] it was 1190 nM; on kisspeptin receptor [3], 166 nM. For the same molecule, the EC50 at kisspeptin receptor [4] is 135 nM; at kisspeptin receptor [5], 85.1 nM; on kisspeptin receptor [6] it was 209 nM. Moreover, at kisspeptin receptor [1] (fold change of EC50 relative to KP10, β-arrestin2), the “Fc β-arrestin2” value was found to be 3.82. Moreover, the “Fc Gz” value at kisspeptin receptor [2] (fold change of EC50 relative to KP10, Gz pathway) worked out at 3.96. Also, the “Δ(logτ/KA) bias factor, Gαz pathway” value at kisspeptin receptor [2] is recorded as −0.7. The “Fc β-arrestin1” value on kisspeptin receptor [9] (fold change of EC50 relative to KP10, β-arrestin1) amounted to 2.01. On kisspeptin receptor [3] (fold change of EC50 relative to KP10, G14 pathway), the “Fc G14” value is 4.28. For the same molecule, the “pIC50 MCF7” value with MCF7 cells [12] is 2.624. Further, the “Fc G15” value on kisspeptin receptor [4] (fold change of EC50 relative to KP10, G15 pathway) is 4.92. In addition, the “Fc Gq” value on kisspeptin receptor [5] (fold change of EC50 relative to KP10, Gq pathway) amounted to 5.76. At kisspeptin receptor [6] (fold change of EC50 relative to KP10, G11 pathway), the “Fc G11” value is on record as 4.65.

As to “Ala^1-KP10: Ala-Asn-Trp-Asn-Ser-Phe-Gly-Leu-Arg-Phe; KP10 Ala-scan analog (ANWNSFGLRF; printed: Ala-Asn-Trp-Asn-Ser-Phe-Gly-Leu-Arg-Phe)”, the “pIC50 HEK293T” value in the assay with HEK293T cells is given as 2.311. In addition, the “pIC50 HeLa” value in the assay with HeLa cells [13] is 2.483. In addition, in the assay on PC3 cells [7], the “pIC50 PC3” value was 2.475.
